Structures can show the parent of a compound that is named as a salt.
Assays:
[1] = Solubility in common organic solvents; assay type: physicochemical
Procedure: Therefore, another objective of the present invention is to find a suitable solvent or solvent mixture to purify crude Ziprasidone base to obtain the required purity with minimal loss of material. The crude Ziprasidone obtained from step (a) is dissolved in a mixture of tetrahydrofuran and N,N-dimethylformamide (7:3, v/v) with activated charcoal and heated to clarify the solution. The solution obtained is filtered, washed with a cold solvent mixture of THF and DMF and dried. The dried Ziprasidone is obtained in 99% HPLC purity.

[2] = Moisture re-absorption of the dried (anhydrous) salt on exposure to humidity; assay type: physicochemical; conditions: after prolonged drying to anhydrous (moisture content up to 0.7% by weight); exposed at 60% relative humidity
From the text: Anhydrous Ziprasidone monohydrochloride is disclosed in U.S. Pat. No. 5,312,925. The Ziprasidone monohydrochloride-hydrate of the present invention can be made anhydrous having moisture content up to 0.7% by weight, after prolonged drying. It has been observed that the compound re-absorbs moisture up to 6% when it is exposed at 60% relative humidity.

SMILES	solubility in most of the common organic solvents [1]	moisture re-absorbed [2]
O=C1Cc2cc(CCN3CCN(c4nsc5ccccc45)CC3)c(Cl)cc2N1 [Ziprasidone, 5-(2-(4-(1,2-benzisothiazol-3-yl)-1-piperazinyl)ethyl)-6-chloro-1,3-dihydro-2H-indole-2-one]	poor solubility	
O=C1Cc2cc(CCN3CCN(c4nsc5ccccc45)CC3)c(Cl)cc2N1 [Ziprasidone monohydrochloride-hydrate, 5-(2-(4-1,2-benzisothiazol-3-yl)piperazinyl)ethyl)-6-chloro-1,3-dihydro-2H-indol-2-one Monohydrochloride-hydrate]		up to 6%

From patent US20070078143A1, “Method for preparing Ziprasidone monohydrochloride-hydrate” (Wockhardt Limited, priority 2003, published 2007)
